Data: patent publication US20250051403A1, “ANTIMICROBIAL PEPTIDES, VARIANTS AND CHEMICAL ANALOGUES THEREOF AND THEIR USES” (priority 2021, published 2025)
≈ marks a conversion by molar mass, not a printed value. Non-standard residues stand in square brackets, D forms with d. Residues, ends and D or L forms follow the SMILES beside them. Abu = CC[C@H](N)C(=O)O

Assays:
[1] = tested on: Clostridium perfringens (ATCC 13124); conditions: Table VI
[2] = tested on: P. aeruginosa Fluoroquinolone resistant (CIP 107398); experiment: MIC, broth microdilution; format: cell-based, Pseudomonas aeruginosa; conditions: CIP 107398
Acinetobacter baumannii = format: cell-based
Protocol: (§1) Biological (antimicrobial) activity of Michelicin (which comprises two disulfide bridges formed between four cysteines) synthetized with (A) or without (B) a stepwise formation of the desired disulfide pattern, was also determined. An analogue of Michelicin which has the same sequence as Michelicin except for the cysteine residues that are replaced by a neutral analogue of cysteine (i.e. Michelicin-OH 2343 (Abu-3-6-11-15)) was synthesized. Abu means 2-aminobutanoic group. This analogue is devoid of disulfide bridges. This analogue of Michelicin is called Michelicin no SS in Table VI.

Staphylococcus aureus = format: cell-based
Protocol: as §1

[3] = tested on: Helicobacter pylori 21031; format: cell-based
Protocol: as §1

[4] = tested on: Salmonella enterica (CIP 80.39); experiment: MIC, broth microdilution; format: cell-based; conditions: Table VI; Salmonella enterica
Protocol: To standardize the bacterial cell suspension for assay of antibacterial activity, some colonies of each strain grown overnight on MHA (Mueller Hinton Agar. ROTH) plates were suspended in MHB (Mueller Hinton Broth. ROTH) or MHB saline (Mueller Hinton Broth containing 565 mM NaCl) and incubated at 37° C. or 30° C. until visible turbid. This log-phase inoculum was diluted 1:100 in the same culture media. Using sterile 96-well microtiter plates (CELLSTAR. Greiner bio-one), serial 2-fold dilutions (40 to 0.78 μM) of each peptide were prepared in cation-adjusted acetic acid 0.02% with 0.4% BSA (Bovin Serum Albumin fraction V. Boehringer) at a volume of 10 μL/well. Each well was inoculated with 100 μL of the standardized bacterial inoculum, corresponding to a final test concentration of about 10^5 CFU/mL. Antimicrobial activities were expressed as the MIC (Minimal Inhibitory Concentration), the lowest concentration of peptide at which 100% inhibition of microbial growth was observed after 24 h of incubation at 37° C. or 30° C. by measuring OD600 in a microtiter plate reader. The minimal bactericidal concentration (MBC) was defined as the peptide concentration where no colony growth was observed.
The same experiments as described in 1) were performed. For the evaluation of antimicrobial activity against some other strains, a resazurin microtiter assay was used as explained hereinafter.

[5] = tested on: S. aureus methicillin resistant USA300 (ATCC BAA-1717); experiment: MIC, broth microdilution; format: cell-based, Staphylococcus aureus; conditions: USA300
[6] = tested on: B. subtilis nisin resistant (DSMZ 347); conditions: Table VI; Bacillus subtilis Nisin resistant

CC[C@H](NC(=O)[C@H](CCCNC(=N)N)NC(=O)CNC(=O)[C@H](CC(N)=O)NC(=O)[C@H](CCCNC(=N)N)NC(=O)[C@H](CC)NC(=O)[C@@H](NC(=O)[C@H](CCCNC(=N)N)NC(=O)[C@@H](NC(=O)[C@H](CC)NC(=O)[C@@H](NC(=O)[C@@H](N)CCCNC(=N)N)C(C)C)C(C)C)[C@@H](C)CC)C(=O)N[C@@H](Cc1ccc(O)cc1)C(=O)N[C@@H](CCCNC(=N)N)C(=O)N[C@@H](CCCNC(=N)N)C(=O)N[C@@H](CC)C(=O)N[C@@H](Cc1c[nH]c2ccccc12)C(=O)N[C@@H](CC(N)=O)C(=O)N[C@H](C(=O)O)[C@@H](C)O [Michelicin no SS, Michelicin-OH 2343 (Abu-3-6-11-15)] (H-RV[Abu]VRI[Abu]RNGR[Abu]YRR[Abu]WNT-OH; N-terminus assumed)
MIC [1]: >80 µM
MIC [2]: >80 µM
MIC (Acinetobacter baumannii): 2.5 µM (≈ 5.86 µg/mL)
MIC (Staphylococcus aureus): 80 µM (≈ 187 µg/mL)
MIC [3]: 40 µM (≈ 93.7 µg/mL)
MIC [4]: 80 µM (≈ 187 µg/mL)
MIC (M. smegmatis mc^2155): 20 µM (≈ 46.9 µg/mL)
MIC [5]: >80 µM
MIC (V. diabolicus (HE 800)): >80 µM
MIC [6]: 5 µM (≈ 11.7 µg/mL)
MIC (Vibrio alginolyticus): 0.625 µM (≈ 1.46 µg/mL)
